These results are taken from patent US10577378B2, “EIF4A-inhibiting compounds and methods related thereto” (eFFECTOR Therapeutics, Inc., priority 2015, dated 2020).

This test deals with MDA-MB-231 human breast cancer cells. Put plainly: Cell proliferation assay (CellTiter-Glo, 72 hours treatment). Format: cell-based. As to conditions: Homo sapiens; MDA-MB-231 cells, 72 hours at 37° C., CellTiter-Glo; read-out: MDA-MB-231 cell proliferation assay (IC50). The procedure, abridged:
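IC50 categories: under 100 nM +++, 100–1000 nM ++, above 1000 nM +, derived by sigmoidal curve fitting of CellTiter-Glo luminescence. Cells plated at 2,500 per well, dosed the following day and exposed 72 h at 37 °C versus DMSO control.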
On the technique in general: ATP-based viability assays read luminescence as a measure of living cells.

As for `COc1cncc2c1[C@]1(O)[C@H](O)[C@H](C(=O)N3CC(F)(F)C3)[C@@H](c3ccccc3)[C@]1(c1ccc(Br)cc1)O2` (racemic) [121F, Rac-((4bS,5R,6R,7S,7aR)-7a-(4-bromophenyl)-4b,5-dihydroxy-4-methoxy-7-phenyl-4b,6,7,7a-tetrahydro-5H-cyclopenta[4,5]furo[2,3-c]pyridin-6-yl)(3,3-difluoroazetidin-1-yl)methanone], the IC50 is 100 to 1000 nM.
For `CN(Cc1ccccc1)S(=O)(=O)[C@H]1[C@@H](O)[C@@]2(O)c3ncc(Cl)cc3O[C@@]2(c2ccc(Br)cc2)[C@@H]1c1ccccc1` (racemic) [123F, rac-(5aR,6S,7R,8S,8aS)—N-benzyl-5a-(4-bromophenyl)-3-chloro-8,8a-dihydroxy-N-methyl-6-phenyl-5a,7,8,8a-tetrahydro-6H-cyclopenta[4,5]furo[3,2-b]pyridine-7-sulfonamide] the value was 100 to 1000 nM.
Regarding `CNS(=O)(=O)[C@H]1[C@@H](O)[C@@]2(O)c3ncc(Cl)cc3O[C@@]2(c2ccc(Br)cc2)[C@@H]1c1ccccc1` (racemic) [124F, Rac-(5aR,6S,7R,8S,8aS)-5a-(4-bromophenyl)-3-chloro-8,8a-dihydroxy-N-methyl-6-phenyl-5a,7,8,8a-tetrahydro-6H-cyclopenta[4,5]furo[3,2-b]pyridine-7-sulfonamide], the IC50 was 100 to 1000 nM.
For `CNS(=O)(=O)[C@H]1[C@@H](O)[C@@]2(O)c3ncc(Cl)cc3O[C@@]2(c2ccc(C#N)cc2)[C@@H]1c1ccccc1` (racemic) [125F, rac-(5aR,6S,7R,8S,8aS)-3-chloro-5a-(4-cyanophenyl)-8,8a-dihydroxy-N-methyl-6-phenyl-5a,7,8,8a-tetrahydro-6H-cyclopenta[4,5]furo[3,2-b]pyridine-7-sulfonamide] the value was greater than 1000 nM; for `O[C@@H]1C[C@@H](c2ccccc2)[C@]2(c3ccc(Br)cc3)Oc3cc(Cl)cnc3[C@]12O` (racemic) [127F, Rac-(5aR,6S,8R,8aS)-5a-(4-bromophenyl)-3-chloro-6-phenyl-5a,6,7,8-tetrahydro-8aH-cyclopenta[4,5]furo[3,2-b]pyridine-8,8a-diol], 100 to 1000 nM; for `N#Cc1ccc([C@@]23Oc4cc(Cl)cnc4[C@]2(O)[C@H](O)C[C@H]3c2ccccc2)cc1` (racemic) [128F, Rac-4-((5aR,6S,8R,8aS)-3-chloro-8,8a-dihydroxy-6-phenyl-6,7,8,8a-tetrahydro-5aH-cyclopenta[4,5]furo[3,2-b]pyridin-5a-yl)benzonitrile], 100 to 1000 nM.
`O=C1C[C@@H](c2ccccc2)[C@]2(c3ccc(Br)cc3)Oc3cc(Cl)cnc3[C@]12O` (racemic) [129F, Rac-(5aR,6S,8aR)-5a-(4-bromophenyl)-3-chloro-8a-hydroxy-6-phenyl-5a,6,7,8a-tetrahydro-8H-cyclopenta[4,5]furo[3,2-b]pyridin-8-one]: the IC50 was greater than 1000 nM.
For `O[C@H]1C[C@@H](c2ccccc2)[C@]2(c3ccc(Br)cc3)Oc3cc(Cl)cnc3[C@]12O` (racemic) [130F, Rac-(5aR,6S,8S,8aS)-5a-(4-bromophenyl)-3-chloro-6-phenyl-5a,6,7,8-tetrahydro-8aH-cyclopenta[4,5]furo[3,2-b]pyridine-8,8a-diol] the value was greater than 1000 nM.
In the case of `N#Cc1ccc([C@@]23Oc4cc(Cl)cnc4[C@]2(O)[C@@H](O)C[C@H]3c2ccccc2)cc1` (racemic) [131F, Rac-4-((5aR,6S,8S,8aS)-3-chloro-8,8a-dihydroxy-6-phenyl-6,7,8,8a-tetrahydro-5aH-cyclopenta[4,5]furo[3,2-b]pyridin-5a-yl)benzonitrile], the IC50 was greater than 1000 nM.
For `Cc1ccc(S(=O)(=O)NN=C2C[C@@H](c3ccccc3)[C@]3(c4ccc(Br)cc4)Oc4cc(Cl)cnc4[C@]23O)cc1` (racemic) [132F, Rac-N′-((5aR,6S,8aS)-5a-(4-bromophenyl)-3-chloro-8a-hydroxy-6-phenyl-5a,6,7,8a-tetrahydro-8H-cyclopenta[4,5]furo[3,2-b]pyridin-8-ylidene)-4-methylbenzenesulfonohydrazide] the value was greater than 1000 nM.
For `O[C@@]12C=C[C@@H](c3ccccc3)[C@]1(c1ccc(Br)cc1)Oc1cc(Cl)cnc12` (racemic) [133F, Rac-(5aR,6S,8aR)-5a-(4-bromophenyl)-3-chloro-6-phenyl-5a,6-dihydro-8aH-cyclopenta[4,5]furo[3,2-b]pyridin-8a-ol] the value was greater than 1000 nM; for `COc1cncc2c1[C@]1(O)[C@H](O)[C@H](C(=O)N3CCC(F)(F)CC3)[C@@H](c3ccccc3)[C@]1(c1ccc(Br)cc1)O2` (racemic) [135F, Rac-((4bS,5R,6R,7S,7aR)-7a-(4-bromophenyl)-4b,5-dihydroxy-4-methoxy-7-phenyl-4b,6,7,7a-tetrahydro-5H-cyclopenta[4,5]furo[2,3-c]pyridin-6-yl)(4,4-difluoropiperidin-1-yl)methanone], less than 100 nM.
With `COC(=O)[C@H]1[C@@H](O)[C@@]2(O)c3c(cc(Cl)nc3OC)O[C@@]2(c2ccc(Br)cc2)[C@@H]1c1ccccc1` (racemic) [136F, Rac-Methyl (5aR,6S,7R,8R,8aS)-5a-(4-bromophenyl)-3-chloro-8,8a-dihydroxy-1-methoxy-6-phenyl-5a,7,8,8a-tetrahydro-6H-cyclopenta[4,5]furo[3,2-c]pyridine-7-carboxylate] the figure was less than 100 nM; with `COc1nc(Cl)cc2c1[C@]1(O)[C@H](O)[C@H](C(=O)N(C)C)[C@@H](c3ccccc3)[C@]1(c1ccc(Br)cc1)O2` (racemic) [137F, Rac-(5aR,6S,7R,8R,8aS)-5a-(4-bromophenyl)-3-chloro-8,8a-dihydroxy-1-methoxy-N,N-dimethyl-6-phenyl-5a,7,8,8a-tetrahydro-6H-cyclopenta[4,5]furo[3,2-c]pyridine-7-carboxamide], less than 100 nM; with `COc1nc(Cl)cc2c1[C@]1(O)[C@H](O)[C@H](CN(C)C)[C@@H](c3ccccc3)[C@]1(c1ccc(Br)cc1)O2` (racemic) [138F, Rac-(5aR,6S,7S,8R,8aS)-5a-(4-bromophenyl)-3-chloro-7-((dimethylamino)methyl)-1-methoxy-6-phenyl-5a,6,7,8-tetrahydro-8aH-cyclopenta[4,5]furo[3,2-c]pyridine-8,8a-diol], less than 100 nM.
With `COc1nccc2c1[C@]1(O)[C@H](O)[C@H](CN(C)C)[C@@H](c3ccccc3)[C@]1(c1ccc(C#N)cc1)O2` (racemic) [141F, Rac-4-((5aR,6S,7S,8R,8aS)-7-((dimethylamino)methyl)-8,8a-dihydroxy-1-methoxy-6-phenyl-6,7,8,8a-tetrahydro-5aH-cyclopenta[4,5]furo[3,2-c]pyridin-5a-yl)benzonitrile], the IC50 lay within 100 to 1000 nM.
For `COc1nc(Cl)cc2c1[C@]1(O)[C@H](O)[C@H](CN(C)C)[C@@H](c3ccccc3)[C@]1(c1ccc(Cl)cc1)O2` (racemic) [142F, Rac-(5aR,6S,7S,8R,8aS)-3-chloro-5a-(4-chlorophenyl)-7-((dimethylamino)methyl)-1-methoxy-6-phenyl-5a,6,7,8-tetrahydro-8aH-cyclopenta[4,5]furo[3,2-c]pyridine-8,8a-diol] the value was less than 100 nM; for `COc1nc(Cl)cc2c1[C@]1(O)[C@H](O)[C@H](CN(C)C)[C@@H](c3ccccc3)[C@]1(c1ccc(C(F)F)cc1)O2` (racemic) [143F, Rac-(5aR,6S,7S,8R,8aS)-3-chloro-5a-(4-(difluoromethyl)phenyl)-7-((dimethylamino)methyl)-1-methoxy-6-phenyl-5a,6,7,8-tetrahydro-8aH-cyclopenta[4,5]furo[3,2-c]pyridine-8,8a-diol], less than 100 nM; for `COc1nc(Cl)cc2c1[C@]1(O)[C@H](O)[C@H](CN(C)C)[C@@H](c3ccccc3)[C@]1(c1ccc(C(F)(F)F)cc1)O2` (racemic) [144F, Rac-(5aR,6S,7S,8R,8aS)-3-chloro-7-((dimethylamino)methyl)-1-methoxy-6-phenyl-5a-(4-(trifluoromethyl)phenyl)-5a,6,7,8-tetrahydro-8aH-cyclopenta[4,5]furo[3,2-c]pyridine-8,8a-diol], less than 100 nM.
Consider `COc1nc(C#N)cc2c1[C@]1(O)[C@H](O)[C@H](CN(C)C)[C@@H](c3ccccc3)[C@]1(c1ccc(C(F)F)cc1)O2` (racemic) [146F, Rac-(5aR,6S,7S,8R,8aS)-5a-(4-(difluoromethyl)phenyl)-7-((dimethylamino)methyl)-8,8a-dihydroxy-1-methoxy-6-phenyl-5a,7,8,8a-tetrahydro-6H-cyclopenta[4,5]furo[3,2-c]pyridine-3-carbonitrile], for which the IC50 was less than 100 nM.
With `COc1nccc2c1[C@]1(O)[C@H](O)[C@H](CN(C)C)[C@@H](c3ccccc3)[C@]1(c1ccc(C(F)F)cc1)O2` (racemic) [148F, Rac-(5aR,6S,7S,8R,8aS)-5a-(4-(difluoromethyl)phenyl)-7-((dimethylamino)methyl)-1-methoxy-6-phenyl-5a,6,7,8-tetrahydro-8aH-cyclopenta[4,5]furo[3,2-c]pyridine-8,8a-diol] the figure was greater than 1000 nM; with `COc1nccc2c1[C@]1(O)[C@H](O)[C@H](CN(C)C)[C@@H](c3ccccc3)[C@]1(c1ccc(C(F)(F)F)cc1)O2` (racemic) [149F, Rac-(5aR,6S,7S,8R,8aS)-7-((dimethylamino)methyl)-1-methoxy-6-phenyl-5a-(4-(trifluoromethyl)phenyl)-5a,6,7,8-tetrahydro-8aH-cyclopenta[4,5]furo[3,2-c]pyridine-8,8a-diol], greater than 1000 nM.
With `CNc1cc2c(c(OC)n1)[C@]1(O)[C@H](O)[C@H](CN(C)C)[C@@H](c3ccccc3)[C@]1(c1ccc(C#N)cc1)O2` (racemic) [150F, Rac-4-((5aR,6S,7S,8R,8aS)-7-((dimethylamino)methyl)-8,8a-dihydroxy-1-methoxy-3-(methylamino)-6-phenyl-6,7,8,8a-tetrahydro-5aH-cyclopenta[4,5]furo[3,2-c]pyridin-5a-yl)benzonitrile] the figure was less than 100 nM.
